Results taken from US7335770B2, “Triazine compounds and their analogs, compositions, and methods” (Reddy U5 Therapeutics, Inc., priority 2004, dated 2008).
Structures can show the parent of a compound that is named as a salt. Where two headings read alike, the source gives them in different places.

Tested on: smooth muscle cells (SMC)
Assay: anti-proliferation assay (perlecan)
Type: cell-based
Protocol: The activity scale used in Table 3 as follows (numbers are inclusive): “+++” represents IC50 of less than about 3 μM; “++” represents IC50 of between about 3 and about 7 μM; and “+” represents IC50 of greater than about 7 μM. In addition, compounds, to include compositions thereof, encompassed within the scope of structures Ia-XXIVa, respectively, or listed in Tables 1A and 1E may be likewise employed in this embodiment and/or aspect of the present invention. Further, any hydrogen atoms that are required for any atom to attain its usual valence in a structure presented in Table 3, whether a carbon atom or a heteroatom, should be inferred if it is not specifically indicated.
In addition to the above compounds, the following compounds and compositions comprising these compounds are active in an anti-proliferation assay (Perlecan). These compounds and compositions comprising these compounds are, among other things, generally useful for treating cardiovascular disorders associated with proliferative activity. Specifically, these compounds include N^2-cycloheptyl-N^4-(3-fluoro-4-methoxyphenyl)-N^6-methyl-N^6-(1-methyl-piperidin-4-yl)-1,3,5-triazine-2,4,6-triamine, and N^2-cycloheptyl-N^4-methyl-N^4-(1-methyl-piperidin-4-yl)-N^6-naphthalen-2-yl-1,3,5-triazine-2,4,6-triamine.
Methods for identifying the activity and screening for one or more of these compounds or molecules that induce synthesis of proteoglycans such as HSPG (heparan sulfate proteoglycan) are taught in U.S. patent application Ser. No. 10/091,357, which is incorporated herein in its entirety. Assays of effects of compounds in vivo are also taught in the incorporated references and are known to those skilled in the art. In general, methods comprise the addition of such compounds to assays and measurement of HSPG synthesis including, but not limited to, the production of syndecans, glypicans and perlecans, for example, syndecans 1, 2 and 4; and glypican-1. Other assays that can be used to determine the activity of the compounds of the present invention include other methods for measuring the induction of perlecan synthesis. For example, in one assay, perlecan is induced in cells by certain inducers, and the response is measured. Compounds of the present invention are then added to a replicate assay and the effect on perlecan induction is determined. Using such methods, compounds are determined that can either inhibit perlecan, elevate induction of perlecan, or that have no effect at all. Those compounds that are effective as therapeutic agents can then be used in animals, humans or patients with cellular proliferation disease aspects, such as vascular-associated diseases or SMC proliferation pathologies.
Another assay for determining compounds having SMC effects comprises adding a composition suspected of affecting SMC proliferation to smooth muscle cells in growth medium or serum-free medium. The change in cell proliferation can be measured by methods known to those skilled in the art, such as incorporation of labeled nucleotides into dividing cells' DNA, and compared to the proliferation of cells which are not treated with the compound. Other measurements include directly determining levels of HSPG synthesis by measuring the amount or change in amount of HSPG such as with ELISA for HSPGs, and compared to the amount of HSPG synthesis in untreated cells. Other indirect or direct measurement are contemplated by the present invention and are known to those skilled in the art. For example, such methods include, but are not limited to, measurement of RNA levels, RT-PCR, Northern blotting, Western blotting promoter-based assays to identify compounds that affect one or more proteoglycans and assays for proteoglycan biological activity shown by recombinant proteins, partially purified proteins, or lysates from cells expressing proteoglycans in the presence or absence of compounds of interest.

[1] = anti-proliferation assay (perlecan), class of IC50, read-out: Activity (note 1)
[2] = anti-proliferation assay (perlecan), some cells print no unit, read-out: Avg IC-50

SMILES | IC50 [1] [µM] | IC50 [2] [µM] | IC50 (read-out: Activity (note 1)) [µM] | IC50 (read-out: Avg IC-50) [µM] | inhibition at 20 µM (read-out: inhibition at 20 μM (printed in the Avg IC-50 column)) [%]
COc1ccc(Nc2nc(NC3CCCCCC3)nc(OC3CCCN(C(C)=O)C3)n2)cc1Cl (stereo not drawn) [drawing 577, 1-{3-[4-(3-Chloro-4-methoxy-phenyl-amino)-6-cyclo-heptylamino-[1,3,5]triazin-2-yl-oxy]-piperidin-1-yl}-ethanone] | 3 to 7 | 6.5 |  |  | 
COc1ccc(Nc2nc(NC3CCCCCC3)nc(OC(C)C)n2)cc1Cl [drawing 578, N-(3-Chloro-4-methoxy-phenyl)-N′-cyclo-heptyl-6-isopropoxy-[1,3,5]tri-azine-2,4-diamine] | 3 to 7 | 6.5 |  |  | 
COc1ccc(Nc2nc(NC3CCCCCC3)nc(Oc3ccc(C#CC(C)(C)O)cc3)n2)cc1Cl [drawing 579, 4-{4-[4-(3-Chloro-4-methoxy-phenyl-amino)-6-cyclo-heptylamino-[1,3,5]triazin-2-yl-oxy]-phenyl}-2-methyl-but-3-yn-2-ol] | < 3 | 1.9 |  |  | 
COc1ccc(Nc2nc(NC3CCCCCC3)nc(Oc3ccccc3C#CC(C)(C)O)n2)cc1Cl [drawing 580, 4-{2-[4-(3-Chloro-4-methoxy-phenyl-amino)-6-cyclo-heptylamino-[1,3,5]triazin-2-yl-oxy]-phenyl}-2-methyl-but-3-yn-2-ol] | < 3 | 2.8 |  |  | 
CCN1CCCC(Oc2nc(Nc3ccc(OC)c(Cl)c3)nc(NC3CCCCCC3)n2)C1 (stereo not drawn) [drawing 581, N-(3-Chloro-4-methoxy-phenyl)-N′-cyclo-heptyl-6-(1-ethyl-piper-idin-3-yloxy)-[1,3,5]triazine-2,4-di-amine] | 3 to 7 | 4.2 |  |  | 
COc1ccc(Nc2nc(NC3CCCCCC3)nc(Oc3ccc(C=O)cc3)n2)cc1Cl [drawing 582, 4-[4-(3-Chloro-4-methoxy-phenyl-amino)-6-cyclo-heptylamino-[1,3,5]triazin-2-yl-oxy]-benzaldehyde] | 3 to 7 | 4.5 |  |  | 
COc1ccc(Nc2nc(NC3CCCCCC3)nc(Oc3ccc(/C=N\O)cc3)n2)cc1Cl [drawing 583, 4-[4-(3-Chloro-4-methoxy-phenyl-amino)-6-cyclo-heptylamino-[1,3,5]triazin-2-yl-oxy]-benzaldehyde oxime] | < 3 | 0.72 |  |  | 
COc1ccc(Nc2nc(NC(C)C)nc(Oc3ccc(C#CC(C)(C)O)cc3)n2)cc1Cl [drawing 584, 4-{4-[4-(3-Chloro-4-methoxy-phenyl-amino)-6-isopropylamino-[1,3,5]tri-azin-2-yloxy]-phenyl}-2-meth-yl-but-3-yn-2-ol] | 3 to 7 | 3.35 |  |  | 
COc1ccc(Nc2nc(NC3CCCCCC3)nc(OCC3CCCO3)n2)cc1Cl (stereo not drawn) [drawing 586, N-(3-Chloro-4-methoxy-phenyl)-N′-cyclo-heptyl-6-(tetrahydro-furan--2-ylmethoxy)-[1,3,5]tri-azine-2,4-diamine] | < 3 | 1.25 |  |  | 
COc1ccc(Nc2nc(NCC3CCCO3)nc(NC3CCCCCC3)n2)cc1Cl (stereo not drawn) [drawing 587, N-(3-Chloro-4-methoxy-phenyl)-N′-cyclo-heptyl-N″-(tetrahydro-furan--2-ylmethyl)-[1,3,5]triazine-2,4,6-tri-amine] | < 3 | 1.36 |  |  | 
COc1ccc(Nc2nc(NCCNC(=O)OC(C)(C)C)nc(NC3CCCCCC3)n2)cc1Cl [drawing 588, {2-[4-(3-Chloro-4-methoxy-phenyl-amino)-6-cyclo-heptylamino-[1,3,5]triazin-2-yl-amino]-ethyl}-carbamic acidtert-butyl ester] | < 3 | 1.25 |  |  | 
COc1ccc(Nc2nc(NCCN)nc(NC3CCCCCC3)n2)cc1Cl [drawing 589, N-(2-Amino-ethyl)-N′-(3-Chloro-4-meth-oxy-phenyl)-N″-cyclo-heptyl-[1,3,5]triazine-2,4,6-triamine] | < 3 | 1 |  |  | 
CCN1CCCC1CNc1nc(Nc2ccc(C)c(F)c2)nc(NC2CCCCCC2)n1 (stereo not drawn) [drawing 591, N-Cycloheptyl-N′-(1-ethyl-pyr-rolidin-2-ylmethyl)-N″-(3-fluoro--4-methyl-phenyl)-[1,3,5]tri-azine-2,4,6-triamine] | < 3 | 2.78 |  |  | 
Cc1ccc(Nc2nc(NC3CCCCCC3)nc(N(C)C3CCN(C)CC3)n2)cc1F [drawing 592, N-Cycloheptyl-N′-(3-fluoro-4-meth-yl-phenyl)-N″-methyl-N″-(1-meth-yl-piperidin-4-yl)-[1,3,5]tri-azine-2,4,6-triamine] | < 3 | 2.25 |  |  | 
CN1CCC(N(C)c2nc(Nc3cccc([N+](=O)[O-])c3)nc(NC3CCCCCC3)n2)CC1 [drawing 593, N-Cycloheptyl-N′-methyl-N′-(1-meth-yl-piperidin-4-yl)-N″-(3-ni-tro-phenyl)-[1,3,5]triazine-2,4,6-tri-amine] | < 3 | 0.91 |  |  | 
COc1ccc(Nc2nc(NCCCCCNC(=O)CCCCC3SCC4NC(=O)NC43)nc(NC3CCCCCC3)n2)cc1Cl (stereo not drawn) [drawing 594, 5-(2-Oxo-hexahydro-thieno[3,4-d]imi-dazol-4-yl)-pentanoic acid {5-[4-(3-chloro-4-methoxy-phenyl-amino)-6-cyclo-heptylamino-[1,3,5]triazin-2-yl-amino]-pentyl}-amide] |  |  | < 3 | 2.2 | 
COc1ccc(Nc2nc(NC3CCCCCC3)nc(NC3CCN(C(=O)CCCCC4SCC5NC(=O)NC54)CC3)n2)cc1Cl (stereo not drawn) [drawing 595] |  |  | < 3 | 0.71 | 
COc1ccc(Nc2nc(NNC(=O)CCCCC3SCC4NC(=O)NC43)nc(NC3CCCCCC3)n2)cc1Cl (stereo not drawn) [drawing 596, 5-(2-Oxo-hexahydro-thieno[3,4-d]imi-dazol-4-yl)-pentanoic acidN′-[4-(3-chloro-4-methoxy-phenyl-amino)-6-cyclo-heptylamino-[1,3,5]triazine-2-yl]-hy-drazide] |  |  | 3 to 7 | 5 | 
COc1ccc(Nc2nc(NCCNC(=O)CCCCC3SCC4NC(=O)NC43)nc(NC3CCCCCC3)n2)cc1Cl (stereo not drawn) [drawing 597, of 5-(2-Oxo-hexahydro-thi-eno[3,4-d]imidazol-4-yl)-pen-tanoic acid {2,-[4-(3-chloro-4-meth-oxy-phenylamino)-6-cyclo-heptylamino-[1,3,5]triazin-2-yl-amino]-ethyl}-amide] | 3 to 7 | 3.2 |  |  | 
CN1CCC(N(C)c2nc(Nc3cccc(F)c3)nc(NC3CCCCCC3)n2)CC1 [drawing 598, N-Cycloheptyl-N′-(3-fluoro-phe-nyl)-N″-methyl-N″-(1-methyl-piper-idin-4-yl)-[1,3,5]triazine-2,4,6-tri-amine] | < 3 | 1.23 |  |  | 
CCN1CCCC1CNc1nc(NC2CCCCCC2)nc(NC2CCC(O)CC2)n1 (stereo not drawn) [drawing 599, 4-{4-Cycloheptylamino-6-[(1-eth-yl-pyrrolidin-2-ylmethyl)-amino]-[1,3,5]triazin-2-ylamino}-cyclo-hexanol] | 3 to 7 | 4.1 |  |  | 
CCN1CCCC1CNc1nc(Nc2ccc(OC)c(F)c2)nc(N2CCN(CC(=O)N3CCCC3)CC2)n1 (stereo not drawn) [drawing 600, 2-{4-[4-[(1-Ethyl-pyrrolidin-2-yl-methyl)-amino]-6-(3-fluoro-4-meth-oxy-phenylamino)-[1,3,5tri-azin-2-yl]-piperazin-1-yl}-1-pyr-rolidin-1-yl-ethanonedihydrogen chloride salt] |  |  |  |  | 42
CCOc1nc(Nc2ccc(OC)c(F)c2)nc(NC2CCCCCC2)n1 [drawing 601, N-Cycloheptyl-6-ethoxy-N′-(3-fluoro--4-methoxy-phenyl)-[1,3,5]tri-azine-2,4-diamine] | 3 to 7 | 4.5 |  |  | 
